Test results taken from patent publication US20220162238A1, “FATTY ACID COMPOSITION AND APPLICATION THEREOF” (SICHUAN GOWELL PHARMACEUTICAL CO., LTD., priority 2019, published 2022).
Marks after values point to notes of the source that are not given here.

Assays:
[1] = system: OXZ-induced mouse IBD model; assay: OXZ-induced mouse IBD model (Example 16); assay type: in vivo, Balb/c mice; conditions: 500 mg/kg intragastrically once a day, 6 days
Experimental: 1. Animals: Balb/c mice, male (20-22 g); 10 mice per group.
(§1) (1) Normal control group (control group): 0.5 wt % sodium carboxymethyl cellulose was administered intragastrically.
(§2) (2) IBD model group (model group): 0.5 wt % sodium carboxymethyl cellulose was administered intragastrically.
(3) Positive drug sulfasalazine group (SASP group): Dosage: 500 mg/kg, prepared with 0.5 wt % sodium carboxymethyl cellulose; stored at 4° C. and administered intragastrically once a day.
Balb/c mice were adaptively fed in an SPF animal room for one week and then grouped randomly. The mice in the model group and the administration groups were constructed as an IBD mouse model with OXZ by entrusting to the Institute of Materia Medica, Chinese Academy of Medical Sciences. Then, the administration was performed for 6 consecutive days; the normal control group was not treated. The normal control group and the model group were intragastrically administered with 0.5 wt % sodium carboxymethylcellulose, once a day. SASP group and test groups 1 to 2 were administrated intragastrically according to the above experimental scheme, once a day. Animals in each group were sacrificed on day 6 of modeling, and various indicators related to colitis were tested (see the section of Experimental results).

[2] = system: DSS-induced IBD mouse model; assay: DSS-induced IBD mouse model (Example 10); assay type: in vivo, C57BL/6J mice; conditions: 500 mg/kg intragastrically once a day
Experimental: 1. Animals: C57BL/6J mice, male (18-20 g); 10 mice per group; purchased from Beijing Huafukang Biotechnology Co., Ltd.; license number: SCXK (Beijing) 2014-0004
as §1
(2) IBC model group (model group): 0.5 wt % sodium carboxymethyl cellulose was administered intragastrically.
(3) Positive drug sulfasalazine group (SASP group): Shanghai Sinepharm Factory Co., Ltd. (batch number: 036151102); dosage: 500 mg/kg, prepared with 0.5 wt % sodium carboxymethyl cellulose, stored at 4° C., administered intragastrically once a day.
(4) Test group: the fatty acid compositions of Examples 1 to 9, dosage: 500 mg/kg, prepared with 0.5 wt % sodium carboxymethyl cellulose, stored at 4° C., administered intragastrically once a day.
For the convenience of experimental operation, two experiments were conducted. The fatty acid compositions of Examples 1 to 5 were used for the first experiment; the fatty acid compositions of Examples 6 to 9 were used for the second experiment. Both experiments were operated according to the following methods. C57BL/6J mice were adaptively fed in an SPF animal room (laboratory animal license number: SYXK (Beijing) 2014-0023) for one week, and then randomly grouped. The mice in the model group and the administration groups were constructed as an IBC mouse model with DSS (MP, CA9011-18-1, US) by entrusting to the Institute of Materia Medica, Chinese Academy of Medical Sciences. The mice in the normal control group were not treated. The normal control group (control group) and model group (model group) were administered with 0.5 wt % sodium carboxymethyl cellulose intragastrically, once a day, with an administration volume of 10 mL/kg. The SASP group and the test group were administered intragastrically according to the above experimental scheme, once a day. […] The animals in each group were sacrificed, and each evaluation indicator of colitis was tested (see the section of Experiment results), and the anti-IBD pharmacodynamic activity of each test sample was evaluated comprehensively.
The DAI scoring criteria were as follows:
The histopathology scoring criteria table was as follows: […]

IBD mouse model with DSS = assay: DSS-induced IBD mouse model (Example 14); assay type: in vivo, C57BL/6J mice; conditions: 500 mg/kg intragastrically once a day; 6 days of DSS modeling
Experimental: as §1, §2
(3) Positive drug sulfasalazine group (SASP group): sulfasalazine enteric-coated tablets; dosage: 500 mg/kg, prepared with 0.5 wt % sodium carboxymethyl cellulose; stored at 4° C. and administered intragastrically once a day.
The mice in the model group and the administration groups were constructed as an IBD mouse model with DSS (MP, CA9011-18-1, US, keeping away from light) by entrusting to the Institute of Materia Medica, Chinese Academy of Medical Sciences. The mice in the normal control group were not treated. The normal control group and model group were administered with 0.5 wt % sodium carboxymethyl cellulose intragastrically, once a day. The SASP group and the test group were administered intragastrically according to the above experimental scheme, once a day. […] The animals in each group were sacrificed, and each evaluation indicator of colitis (see the section of Experiment results) was tested, and the anti-IBD pharmacodynamic activity of each test sample was evaluated comprehensively.

[3] = system: TNBS-induced rat IBD model; assay: TNBS-induced rat IBD model (Example 15); assay type: in vivo, SD rats
Experimental: (1) Normal control group (control group): 0.5 wt % sodium carboxymethyl cellulose (CMC-Na) was administered intragastrically.
as §2
(3) Positive drug sulfasalazine group (SASP group): sulfasalazine enteric-coated tablets, dosage: 600 mg/kg, prepared with 0.5% sodium carboxymethyl cellulose; administered intragastrically once a day.
3. Experimental method: After being fasted but water allowed for about 24 hours, rats in each group were anesthetized by intraperitoneal injection of 3% sodium pentobarbital solution, and a plastic tube with a diameter of 2 mm and a length of about 12 cm was gently inserted into the rat body via the anus for about 8 cm deep. The ethanol solution containing TNBS was slowly injected with the dose of TNBS 75 mg/kg and the administration volume of 3 mL/kg body weight, and then about 0.1 mL of air was injected to discharge the medicine remained in the plastic tube into intestine. After the administration, the plastic tube was slowly pulled out, the anus was pinched with hand, and the tail of the rat was lifted and kept upside down for about 30 s, so that the modeling agent can fully penetrate into the intestinal cavity of the rat. The normal control group was injected with the same amount of normal saline, Based on the body weight thereof, 75 TNBS modeled rats were randomly divided into model group, positive drug group (sulfasalazine 600 mg/kg body weight), test groups 1 to 3, 15 rats/group, and a normal control group was set up, in which 15 rats were included. On the second day after modeling, the corresponding test samples were administered intragastrically. The normal control group and the model group were administered with 0.5 wt % CMC-Na once a day for 5 consecutive days. DAI activity score was performed on days 1 and 3 of administration and 24 hours after the last administration. Intestinal mucosal damage was observed 24 hours after the last administration for CMDI scoring. The colon tissue was taken for histopathological examination.

[4] = SASP 600 mg/kg, Example 4 at 150, 300 and 600 mg/kg

In the case of `O=C(O)c1cc(/N=N/c2ccc(S(=O)(=O)Nc3ccccn3)cc2)ccc1O` [Positive drug, sulfasalazine], the “DAI composite index inhibition rate (%)” value [1] is reported as 50%, the histopathological score [1] is reported as 4.38 ± 0.42 and the “anti-IBD activity / colon tissue damage (in words)” value ([2]; first experiment) is reported as “effectively improve the colon tissue damage”. For the same compound, the “disease comprehensive index DAI score vs. model group (in words)” value ([2]; first experiment) was “reduce the disease comprehensive index DAI score of the experimental animal significantly”, the “DAI comprehensive index inhibition rate (%)” value ([2]; first experiment, 7 days of DSS modeling) was 23.08^# % and the histopathological score ([2]; first experiment, 7 days of DSS modeling, lower is closer to normal) was 7.25 ± 2.14. The “anti-IBD activity / colon tissue damage (in words)” value ([2]; second experiment) was “slightly improve the colon tissue damage”, the “DAI comprehensive index inhibition rate (%)” value (IBD mouse model with DSS) was 38.7^# % and the “histopathological examination: cases with histological changes of the colon” value ([3]; 600 mg/kg, model group 6 cases of 15) was 5 cases of 15 cases. The “degree of colon histological lesions vs. model group” value [3, 4] was “significantly reduced compared with the model group”, the “symptoms of sparse stools and bloody stools during the administration period” value [3, 4] was “alleviated until disappeared” and the DAI score value ([3]; d6, 600 mg/kg intragastrically once a day for 5 days, p<0.05) was “lower”. For the same compound, the CMDI score value ([3]; d6, 600 mg/kg intragastrically once a day, p<0.05) was “lower”.
